Measured values: patent US20240018483A1, “A DEVICE AND METHOD FOR VASCULARISING A CELL AGGREGATE” (AGENCY FOR SCIENCE, TECHNOLOGY AND RESEARCH, priority 2020, published 2024)

System: Hep3b monoculture and triculture spheroids
Assay: Sorafenib treatment of tumour spheroids in devices with and without vasculature (GFP signal of live cells)
Type: cell-based
Conditions: 10 μM Sorafenib for 7 days from day 5, vascularised vs non-vascularised, FIG. 9B
Method: Next, the effect of Sorafenib treatment on the tumour spheroids and the vasculature was investigated. In this example, Hep3b monoculture and triculture spheroids were seeded in the devices with and without vasculature. At day 5, 10 μM of Sorafenib was used to treat the tumours for 7 days. GFP signal (representing the live cells) was quantified along the time.
In FIG. 9A, representative images from all the conditions are shown at Day 0 (starting of the drug treatment) and Day 5 post-treatment. FIG. 9B is a graph showing the GFP signal over time represented from 3 independent replicates.

CNC(=O)c1cc(Oc2ccc(NC(=O)Nc3ccc(Cl)c(C(F)(F)F)c3)cc2)ccn1 [Sorafenib] was tested, and the “viability of spheroids (GFP signal representing the live cells)” value was “viability of the vascularised spheroids is lower compared to the non-vascularised spheroids”.
